Experiments:
Type in all cases: in vivo, chicken
[1] = test system: SPF white leghorn chickens; assay: Microscopic (histopathological) lesions in bursa and proventriculus; conditions: for Microscopic lesions in the bursa, samples with lesions/screened / Microscopic lesions in the proventriculus, samples with lesions/screened: challenge at 28 d post hatch ± REO S-1133 and/or copper sulfate
Source text: Tissues were placed in 10% buffered formalin at necropsy. Twenty-four hours later tissues were removed and manually trimmed to a thickness of ⅛ inch and placed in tissue cassettes. Tissues were dehydrated through graded alcohols, and cleared in two changes of toluene. Tissues were then infiltrated with paraffin over a 16-hour period using an autoprocessor. Following paraffin infiltration, tissues were positioned in paraffin blocks and trimmed to expose a uniform tissue face. Prepared tissue blocks were stored at −20° C. until ready to be sectioned. Sections were cut at a thickness of 5μm and floated on a water bath containing 5% gelatin before they were placed on standard 1×3 inch slides. Tissue sections were then stained using the standard method of Harris (41), for hematoxylin and eosin.
Tissues were examined microscopically for the presence of histopathological lesions induced by IBDV infection. […] Lesions in the bursa were predominantly lymphoid depletion with accompanied follicle degeneration Tissues were given a numerical index score based on the presence or absence of lesions as well as the intensity of the lesions. The scores ranged from a low of “0” which indicates no lesions or pathology observed to a high of “4” which indicates extensive tissue damage.
(§1) Tissues were placed in buffered formalin at necropsy, and processed twenty-four hours later by the method described in Section 1 (55). Tissues were examined for the presence of histopathological lesions induced by IBDV infection. Lesions in the lamina propria of the proventriculus were predominantly pleomorphism of the lymphoid cells in the mucosa along with lymphocyte depletion. Lesions in the bursa were predominantly lymphoid depletion with accompanied follicle degeneration.
(§2) Tissues were given a numerical index score based on the presence or absence as well as the intensity of the lesions present. The score ranged from a low of “0” which indicates no lesions or pathology observed to a high of “4” which indicates extensive tissue damage.
Tissues were placed in buffered formalin at necropsy, and processed twenty-four hours later by the method described in Section 1 (55). Tissues were examined for the presence of histopathological lesions induced by IBDV infection. Tissues were given a numerical index score based on the presence or absence as well as the intensity of the lesions present. The score ranged from a low of “0” which indicates no lesions or pathology observed to a high of “4” which indicates extensive tissue damage.
Tissues were placed in buffered formalin at necropsy, and processed twenty-four hours later by the method described in Section 1 (55). Tissues were examined for the presence of histopathological lesions induced by IBDV infection.

[2] = test system: commercial broiler chickens; assay: Microscopic lesions in bursa and proventriculus of broilers; conditions: broilers challenged 35 d post hatch
Source text: as §1, §2

[3] = test system: SPF white leghorn chickens; assay: TUNEL staining for apoptotic cells in bursa and proventriculus; set-up: key: + indicates the presence of specific fluorescence following TUNEL staining; ++: multiple “+'s” indicate visual intensity assessment; +++: multiple “+'s” indicate visual intensity assessment; ++++: multiple “+'s” indicate visual intensity assessment; −: scored as positive when present and negative when absent; conditions: 4 days post challenge
Source text: Formalin fixed tissues from experiments described in Section 3 were utilized in this staining procedure. All tissues utilized were harvested at 4 days post challenge with a 1× concentration of USDA/STC IBDV or Variant E/11084 IBDV. Tissues from specific birds were selected following an initial screening with hematoxylin and eosin stained sections. Tissue preparation and sectioning were as follows. Tissues were placed in 10% buffered formalin at necropsy. Twenty-four hours later tissues were removed, manually trimmed to a thickness of ⅛ inch and placed in tissue cassettes. Tissues were dehydrated through graded alcohols and cleared in two changes of toluene. Tissues were then infiltrated with paraffin over a 16 hour period using an autoprocessor. Following paraffin infiltration, tissues were positioned in paraffin blocks and trimmed to expose a uniform tissue face. Prepared tissue blocks were stored at −20° C. until ready to be sectioned. Sections were cut at a thickness of 5 μm and floated on a water bath containing 5% gelatin to facilitate attachment (55). […]
Tissue sections were prepared as described earlier and removed from storage at 4° C. […] Slides were stored at 4° C. overnight before viewing for the presence of fluorescence. Slides were viewed using an Olympus BX50 microscope equipped with a Olympus PM-C35X camera and Omega dye specific fluorescence filters (DAPI 385-395) (FITC 475-497). […]

[4] = test system: commercial broiler chickens; assay: AC-ELISA for IBDV in tissue homogenates of challenged broilers; conditions: broilers challenged 35 d post hatch
Method: Broiler chickens were challenged or, day 35 post hatch (PH) with the USDA/STC IBDV prepared inoculum as described previously. Infectious bursal disease virus challenge was administered to each individual bird bilaterally to the eye (30 μl per eye) using an Eppendorf micropipettor (Brinkmann Inc., Westbury, N.Y.) and a sterile pipette tip (Costar Corp., Cambridge, Mass.).
(§3) On days 4 and 11 post challenge 25 birds were necropsied from each virus challenge group and an additional 10 birds from the negative control. Each bird was weighed, bled, and euthanized by CO2 asphyxiation. All birds were necropsied at which time the bursa and proventriculus were scored for the presence of gross lesions. The bursa, spleen, and proventriculus were individually weighed and results recorded. Tissues from each of the birds were cut in half, with one half being placed into 10% buffered formalin, and the other half being placed into a sterile sampling bag (Fisher Scientific, Pittsburgh, Pa.). Tissues in sterile sampling bags were frozen at −20° C. for later analysis utilizing IBDV Antigen Capture ELISA(AC-ELISA), as described by Snyder et al (138).
AC-ELISA test plates were prepared as described earlier in Section 1. Tissues were homogenized in AC-ELISA dilution buffer at a ratio of 1:5 tissue weight to volume. Homogenates were analyzed in duplicate against IBDV monoclonal B-29 AC-ELISA plates as described earlier in Section 1. Plates were read and means were calculated for the paired samples within each group and the homogenates were determined to be positive or negative based on the mean absorbance values as compared to the negative and positive controls on each plate.

[5] = test system: SPF white leghorn chickens; assay: Antigen Capture ELISA (AC-ELISA) for IBDV in tissue homogenates of challenged birds; conditions: challenge at 28 d post hatch ± REO S-1133 and/or copper sulfate 1 lb/ton
Source text: On days 4 and 11 post challenge 10 birds were necropsied from each virus challenge group as well as an additional 10 birds from the negative control. Each bird was weighed, bled, and euthanized with CO2 gas. All bursae and proventriculi were scored for the presence of gross lesions during necropsy. The bursa, spleen, and proventriculus were individually weighed and weights recorded. Tissues from each of the first five birds were cut in half, with one half being placed into 10% buffered formalin, and the other half being placed into a sterile sampling bag (Fisher Scientific, Pittsburgh, Pa.). All tissues were pooled by organ and experimental treatment group into the buffered formalin and into the sampling bags. Tissues from the remaining five birds were placed only in the sterile sampling bags. Tissues in sterile sampling bags were frozen at −20° C. for later analysis utilizing Antigen Capture ELISA (AC-ELISA), as described by Snyder et al (11).
Monoclonal antibody B-29 (University of Maryland, College Park, Md., Intervet Inc. , Millsboro, Del.) was diluted 1:10 in ice cold sterile distilled water. The solution was then acidified by the addition of 0.4 N sulfuric acid. The acidified monoclonal solution was incubated in an ice bath for one hour […]. Following incubation the acidified monoclonal antibody was diluted in 200 ml of coating buffer bringing the final dilution of monoclonal antibody to 1:10,000. ELISA optimized 96 well microtiter plates Corning #25805-96 (Corning Glass Works, Corning N.Y. 14831) were coated with 100 μl per well of a 1:10,000 dilution of monoclonal antibody B-29 (University of Maryland, College Park, Md.; Intervet, Inc., Millsboro Del.) ascitic fluid in coating buffer (Appendix). Plates were covered with individual plate sealers (Dynatech, Chantilly Va.), and incubated for 2 hours at 37° C. and then overnight at 4° C. Coated plates were washed three times with washing buffer (Appendix), with residual fluid being tapped out. Plates were allowed to air dry at room temperature and were then covered with individual plate sealers and stored at −20° C. until needed.
Infectious bursal disease virus suspect tissues were homogenized in AC-ELISA dilution buffer (Appendix) at a ratio of 1:5 or approximately 20% tissue weight to volume. Homogenization was accomplished by use of a rubber mallet, followed by the addition of the dilution buffer. One hundred fifty μl of each bursal homogenate and 300 μl of each proventricular homogenate were placed in duplicate in a 96 well round bottom plate. The concentration of the bursa tissue was adjusted by addition of 150 μl of AC-ELISA dilution buffer. There was no additional dilution to the proventriculus tissue homogenates. […]

[6] = test system: SPF white leghorn chickens; assay: Body weight after virus challenge
Source text: as §3, with “challenge 10” for “challenge 25”, “the bursa,” for “the bursa”
All data was entered into Microsoft™ Excel (Microsoft Corp., Redmond, Wash.). and were analyzed using SAS (10) (SAS Institute Inc., Cary, N.C.). Statistical significance was determined at the P<0.05 level using General Linear Models Procedure and least squared means for body weight, bursa: body weight ratios, spleen: body weight ratios, and proventriculus: body weight ratios. In addition, statistical differences were determined for means of the numerical index scores for gross lesions in the bursa and proventriculus.

O=S(=O)([O-])[O-].[Cu+2] [NC + CS, copper sulfate]
Microscopic lesions in the bursa, samples with lesions/screened ([1]; day 4 post challenge): 0/10 | Microscopic lesions in the proventriculus, samples with lesions/screened ([1]; day 4 post challenge): 0/10 | Microscopic lesions in the bursa, samples with lesions/screened ([1]; day 11 post challenge): 0/10 | Microscopic lesions in the proventriculus, samples with lesions/screened ([1]; day 11 post challenge): 0/10 | Lesions in the proventriculus, gross or microscopic ([1]; dietary copper levels used, without virus): no lesions in the proventriculus either gross or microscopic | Microscopic lesions in the bursa ([2]; day 4 post challenge): 0/10 | Microscopic lesions in the proventriculus ([2]; day 4 post challenge): 0/10 | Microscopic lesions in the bursa ([2]; day 11 post challenge): 9/10 | Microscopic lesions in the proventriculus ([2]; day 11 post challenge): 0/10 | TUNEL staining, bursa [3]: − | TUNEL staining, proventriculus [3]: − | AC-ELISA bursal homogenates, positive/tested ([4]; day 4 post challenge): 0/10 | AC-ELISA proventricular homogenates, positive/tested ([4]; day 4 post challenge): 0/10 | AC-ELISA bursal homogenates, positive/tested ([4]; day 11 post challenge): 0/10 | AC-ELISA proventricular homogenates, positive/tested ([4]; day 11 post challenge): 0/10 | AC-ELISA bursal homogenates, positive/tested ([5]; day 4 post challenge): 0/10 | AC-ELISA proventricular homogenates, positive/tested ([5]; day 4 post challenge): 0/10 | AC-ELISA bursal homogenates, positive/tested ([5]; day 11 post challenge): 0/10 | AC-ELISA proventricular homogenates, positive/tested ([5]; day 11 post challenge): 0/10 | Body weight gain vs negative control ([6]; between day 4 and day 11 post challenge): significantly lower | Day 11 body weight means vs negative control ([6]; day 11 post challenge): significantly different

Reference: US6406843B1, “Poultry virus isolates and method” (University of Arkansas, priority 1998, dated 2002)
